Data: article PMC9350911, “Protein–Calixarene Complexation: From Recognition to Assembly” (Accounts of Chemical Research, 2022)

Experiments:
Assay type in all cases: binding
cytochrome c (cyt c) [1] = biological target: T1, cytochrome c (cyt c) (Saccharomyces cerevisiae, UniProt P00044); assay: ITC; X-ray cocrystal structure; NMR; SECMALS
T1 construct: gene CYC1

cytochrome c (cyt c) [2] = biological target: T1, cytochrome c (cyt c); assay: ITC; X-ray cocrystal structure; settings: read-out: apparent dissociation constant; cited from earlier work
[3] = biological target: Penicillium antifungal protein (PAF) (Penicillium chrysogenum, UniProt Q01701); assay: ITC; X-ray cocrystal structure; NMR
cytochrome c (cyt c) [4] = biological target: T1, cytochrome c (cyt c); assay: ITC; X-ray cocrystal structure; NMR; settings: read-out: apparent dissociation constant; cited from earlier work

T1 sequence (P00044 2-109): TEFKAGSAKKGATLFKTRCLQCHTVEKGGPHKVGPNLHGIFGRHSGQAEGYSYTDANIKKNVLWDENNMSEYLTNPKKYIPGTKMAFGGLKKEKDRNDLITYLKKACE
Penicillium antifungal protein (PAF), sequence (Q01701 38-92 limits assumed): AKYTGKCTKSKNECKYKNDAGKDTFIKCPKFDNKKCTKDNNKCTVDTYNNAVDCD

O=P(O)(O)c1cc2c(O)c(c1)Cc1cc(P(=O)(O)O)cc(c1O)Cc1cc(P(=O)(O)O)cc(c1O)Cc1cc(P(=O)(O)O)cc(c1O)Cc1cc(P(=O)(O)O)cc(c1O)Cc1cc(P(=O)(O)O)cc(c1O)C2 [phosphonato-calix[6]arene]
binding affinity (cytochrome c (cyt c) [1]): the ITC data indicated a binding affinity in the low micromolar range

O=S(=O)(O)c1cc2c(O)c(c1)Cc1cc(S(=O)(=O)O)cc(c1O)Cc1cc(S(=O)(=O)O)cc(c1O)Cc1cc(Br)cc(c1O)C2 [bromo-sulfonato-calix[4]arene]
Kd (cytochrome c (cyt c) [2]): 20 µM

O=S(=O)(O)c1cc2c(O)c(c1)Cc1cc(S(=O)(=O)O)cc(c1O)Cc1cc(S(=O)(=O)O)cc(c1O)Cc1cc(S(=O)(=O)O)cc(c1O)Cc1cc(S(=O)(=O)O)cc(c1O)Cc1cc(S(=O)(=O)O)cc(c1O)C2 [sulfonato-calix[6]arene]
binding affinity [3]: Micromolar binding affinities were determined by ITC

O=S(=O)(O)c1cc2c(O)c(c1)Cc1cc(S(=O)(=O)O)cc(c1O)Cc1cc(S(=O)(=O)O)cc(c1O)Cc1cc(S(=O)(=O)O)cc(c1O)C2 [sulfonato-calix[4]arene]
binding affinity [3]: Micromolar binding affinities were determined by ITC | Kd (cytochrome c (cyt c) [4]): 30 µM
